Measurements reported in ChEMBL document CHEMBL6071160, “Identification of a novel 10-hydroxyevodiamine prodrug as a potent topoisomerase inhibitor with improved aqueous solubility for treatment of hepatocellular carcinoma” (Eur J Med Chem, 2024).
pIC50: −log10 of the molar value. Activity calls are given as the source filed them. The rule behind the calls is not given here.

Columns and labels:
Huh-7 [1] = experiment: Induction of apoptosis in human Huh-7 cells assessed as viable cells at 20 nM measured after 24 hrs by Annexin-V-FITC/PI analysis (reference value: 97.46%); format: functional; conditions: read-out: Activity
[2] = Antiproliferative activity against human Doxorubicin-resistant SMMC-7721 cell assessed as inhibition of cell proliferation incubated for 72 hrs by MTT assay; format: functional, cell-based; conditions: SMMC-7721, 72 h
Huh-7 [3] = experiment: Inhibition of cell invasion in human Huh-7 cells assessed as decrease in number of cells migration into lower compartment at 20 nM measured after 24 hrs by transwell assay; format: functional, cell-based
Huh-7 [4] = experiment: Induction of apoptosis in human Huh-7 cells assessed as early apoptotic cells at 40 nM measured after 24 hrs by Annexin-V-FITC/PI analysis (reference value: 1.04%); format: functional
SK-HEP1 [5] = experiment: Induction of apoptosis in human SK-HEP1 cells assessed as loss of mitochondrial membrane potential by measuring JC-1 stained cells at 20 nM measured after 24 hrs by JC-1 staining based flow cytometry (reference value: 0.49%); format: functional
[6] = Toxicity in BALB/c nude mouse subcutaneously injected with human Huh-7 cells assessed as changes in heart tissue at 10 mg/kg, ip administered once daily measured after 14 days by H and E staining based assay; format: organism-based; conditions: in vivo, 336 h, time 14 day
[7] = Aqueous solubility of the compound […] measured after 72 hrs in shaking by HPLC analysis; format: physicochemical
SK-HEP1 [8] = experiment: Induction of apoptosis in human SK-HEP1 cells assessed as necrotic cells at 80 nM measured after 24 hrs by Annexin-V-FITC/PI analysis (reference value: 0.70%); format: functional
SK-HEP1 [9] = experiment: Induction of apoptosis in human SK-HEP1 cells assessed as ROS generation by measuring DCFH2-DA stained cells at 40 nM measured after 24 hrs […] (reference value: 0.14%); format: functional
SK-HEP1 [10] = experiment: Induction of cell cycle arrest in human SK-HEP1 cells assessed as accumulation of cells at G2 phase 40 nM measured after 24 hrs by flow cytometric assay (reference value: 22.41%); format: functional
Huh-7 [11] = experiment: Induction of apoptosis in human Huh-7 cells assessed as ROS generation by measuring DCFH2-DA stained cells at 20 nM measured after 24 hrs […] (reference value: 0.45%); format: functional
SK-HEP1 [12] = experiment: Induction of cell cycle arrest in human SK-HEP1 cells assessed as accumulation of cells at G1 phase 40 nM measured after 24 hrs by flow cytometric assay (reference value: 47.55%); format: functional
[13] = biological target: DNA topoisomerase II (Homo sapiens) (UniProt P11388+Q02880); experiment: Inhibition of DNA topoisomerase 2 (unknown origin) assessed as relaxation of supercoiled plasmid pBR322 DNA at 25 to 100 uM incubated for 15 mins measured after 30 mins addition of ethidium bromide by agarose gel electrophoresis; format: protein assay; conditions: dose 25-100 µM
Huh-7 [14] = experiment: Induction of cell cycle arrest in human Huh-7 cells assessed as accumulation of cells at G2 phase 20 nM measured after 24 hrs by flow cytometric assay (reference value: 13.66%); format: functional
SK-HEP1 [15] = experiment: Induction of apoptosis in human SK-HEP1 cells assessed as loss of mitochondrial membrane potential by measuring JC-1 stained cells at 80 nM measured after 24 hrs by JC-1 staining based flow cytometry (reference value: 0.49%); format: functional
SMMC-7721 = experiment: Antiproliferative activity against human SMMC-7721 cells assessed as inhibition of cell proliferation incubated for 72 hrs by MTT assay; format: functional, cell-based; conditions: SMMC-7721, 72 h
Huh-7 [16] = experiment: Induction of apoptosis in human Huh-7 cells assessed as ROS generation by measuring DCFH2-DA stained cells at 40 nM measured after 24 hrs […] (reference value: 0.45%); format: functional
Huh-7 [17] = experiment: Induction of cell cycle arrest in human Huh-7 cells assessed as accumulation of cells at G2 phase 40 nM measured after 24 hrs by flow cytometric assay (reference value: 13.66%); format: functional
[18] = Toxicity in BALB/c nude mouse subcutaneously injected with human Huh-7 cells assessed as changes in lung tissue at 10 mg/kg, ip administered once daily measured after 14 days by H and E staining based assay; format: organism-based; conditions: in vivo, 336 h, time 14 day
Huh-7 [19] = experiment: Induction of apoptosis in human Huh-7 cells assessed as loss of mitochondrial membrane potential by measuring JC-1 stained cells at 80 nM measured after 24 hrs by JC-1 staining based flow cytometry (reference value: 2.27%); format: functional
Huh-7 [20] = experiment: Induction of apoptosis in human Huh-7 cells assessed as early apoptotic cells at 80 nM measured after 24 hrs by Annexin-V-FITC/PI analysis (reference value: 1.04%); format: functional
[21] = Tmax in Sprague-Dawley rat at 10 mg/kg, ip measured upto 24 hrs by LC-MS/MS analysis; format: ADME, organism-based; conditions: in vivo
[22] = Toxicity in BALB/c nude mouse subcutaneously injected with human Huh-7 cells assessed as change in body weight at 40 mg/kg, ip administered once daily measured after 14 days; format: organism-based; conditions: in vivo, 336 h, time 14 day
Huh-7 [23] = experiment: Induction of cell cycle arrest in human Huh-7 cells assessed as accumulation of cells at S phase 80 nM measured after 24 hrs by flow cytometric assay (reference value: 23.33%); format: functional
[24] = Toxicity in BALB/c nude mouse subcutaneously injected with human Huh-7 cells assessed as change in platelet level at 10 mg/kg, ip administered once daily measured after 14 days; format: organism-based; conditions: in vivo, 336 h, time 14 day
SK-HEP1 [25] = experiment: Induction of apoptosis in human SK-HEP1 cells assessed as late apoptotic cells at 80 nM measured after 24 hrs by Annexin-V-FITC/PI analysis (reference value: 0.64%); format: functional
SK-HEP1 [26] = experiment: Induction of cell cycle arrest in human SK-HEP1 cells assessed as accumulation of cells at G1 phase 20 nM measured after 24 hrs by flow cytometric assay (reference value: 47.55%); format: functional
Huh-7 [27] = experiment: Inhibition of cell invasion in human Huh-7 cells assessed as decrease in number of cells migration into lower compartment at 10 nM measured after 24 hrs by transwell assay; format: functional, cell-based
SK-HEP1 [28] = experiment: Induction of apoptosis in human SK-HEP1 cells assessed as late apoptotic cells at 40 nM measured after 24 hrs by Annexin-V-FITC/PI analysis (reference value: 0.64%); format: functional
Huh-7 [29] = experiment: Induction of apoptosis in human Huh-7 cells assessed as loss of mitochondrial membrane potential by measuring JC-1 stained cells at 20 nM measured after 24 hrs by JC-1 staining based flow cytometry (reference value: 2.27%); format: functional
SK-HEP1 [30] = experiment: Inhibition of cell invasion in human SK-HEP1 cells assessed as decrease in number of cells migration into lower compartment at 40 nM measured after 24 hrs by transwell assay; format: functional, cell-based
Huh-7 [31] = experiment: Induction of apoptosis in human Huh-7 cells assessed as necrotic cells at 20 nM measured after 24 hrs by Annexin-V-FITC/PI analysis (reference value: 0.27%); format: functional
Huh-7 [32] = experiment: Inhibition of cell migration in human Huh-7 cells at 20 nM measured for 24 hrs by scratch wound healing assay; format: functional, cell-based
SK-HEP1 [33] = experiment: Inhibition of cell migration in human SK-HEP1 cells at 10 nM measured for 24 hrs by scratch wound healing assay; format: functional, cell-based

Structure (SMILES): C[N+](C)(C)CCC(=O)Oc1ccc2[nH]c3c(c2c1)CCN1C(=O)c2cc(F)cc(F)c2N(c2cccc(F)c2)C31.[I-] (centres undefined)
- viability at 0.02 µM (Huh-7 [1]): 96.6%
- pIC50 [2]: 6.96
- inhibition (Huh-7 [3]): Active
- Activity (Huh-7 [4]): 2.84%
- Activity (SK-HEP1 [5]): 0.78%
- Activity [6]: Non-Toxic
- solubility thermodynamic at 72 h [7]: 967 µg/mL
- Activity (SK-HEP1 [8]): 1.15%
- Activity (SK-HEP1 [9]): 13.95%
- Activity (SK-HEP1 [10]): 24.99%
- Activity (Huh-7 [11]): 0.73%
- Activity (SK-HEP1 [12]): 43.86%
- inhibition [13]: Active
- Activity (Huh-7 [14]): 5.93%
- Activity (SK-HEP1 [15]): 18.32%
- pIC50 (SMMC-7721): 7.05
- Activity (Huh-7 [16]): 1.09%
- Activity (Huh-7 [17]): 11.72%
- Activity [18]: Non-Toxic
- Activity (Huh-7 [19]): 12.52%
- Activity (Huh-7 [20]): 7.8%
- Tmax [21]: 1.67 h
- Activity [22]: Toxic
- Activity (Huh-7 [23]): 6.71%
- Activity [24]: Non-Toxic
- Activity (SK-HEP1 [25]): 11.59%
- Activity (SK-HEP1 [26]): 47.61%
- inhibition (Huh-7 [27]): Active
- Activity (SK-HEP1 [28]): 1.31%
- Activity (Huh-7 [29]): 2.23%
- inhibition (SK-HEP1 [30]): Active
- Activity (Huh-7 [31]): 0.11%
- inhibition (Huh-7 [32]): Active
- inhibition (SK-HEP1 [33]): Active
